Test results as given in US6444850B1, “Fungicidial compounds having a fluorovinyloxphyenyl moiety and process for the preparation thereof” (priority 1997, dated 2002).

Legend:
Botrytis cinerae = assay: Fungicidal activity against cucumber gray mold rot (CGM) disease; assay type: in vivo; settings: 50 ppm, control value
Erysiphae graminis = assay: Fungicidal activity against barley powdery mildew (BPM) disease; assay type: in vivo; settings: for C. V. (%) BPM: 50 ppm, control value, barley powdery mildew; for C. V. (%), Fungicidal activities against TLB at 10 ppm: Table 9 (Test Example 6)
Phytophthora infestans = assay type: in vivo; settings: 50 ppm; control value, tomato late blight
[1] = tested on: Pyricularia oryzae Carvara KA301; assay type: in vivo; settings: for C. V. (%) RCB: 50 ppm, control value, rice blast
Rhizoctonia solani AG-1 = assay: Fungicidal activity against rice sheath blight (RSB) disease; settings: 50 ppm, control value
Puccinia recondita = assay: Fungicidal activity against wheat leaf rust (WLR) disease; assay type: in vivo; settings: for C. V. (%) WLR: 50 ppm, control value, wheat leaf rust; for C. V. (%), Fungicidal Activities against WLB at 10 ppm: Table 8 (Test Example 5)
[2] = 10 ppm, sprayed on Nakdong rice plant, control value from lesion area

SMILES | C. V. (%) CGM (Botrytis cinerae) [%] | C. V. (%) BPM (Erysiphae graminis) [%] | C. V. (%) TLB (Phytophthora infestans) [%] | C. V. (%) RCB [1] [%] | C. V. (%) RSB (Rhizoctonia solani AG-1) [%] | C. V. (%) WLR (Puccinia recondita) [%] | C. V. (%), Fungicidal activities against TLB at 10 ppm (Erysiphae graminis) [%] | C. V. (%), Fungicidal Activities against WLB at 10 ppm (Puccinia recondita) [%] | C. V. (%) Fungicidal Activities against RCB at 10 ppm [1, 2] [%] | C. V. (%) Fungicidal Activities against RCB at 10 ppm (TABLE 6) [1, 2] [%]
CNC(=O)C(=COC)c1ccccc1COc1cccc(OC(F)=C(c2ccc(Br)cc2)C(F)(F)F)c1 [Compound 101] | 21 | 0 | 3 | 0 | 10 | 73 | – | – | – | –
COC=C(C(=O)OC)c1ccccc1COc1cccc(OC(F)=C(c2cc(Cl)cc(Cl)c2)C(F)(F)F)c1 [Compound 102] | 0 | 100 | 3 | 0 | 45 | 96 | 98 | – | – | –
CON=C(C(=O)OC)c1ccccc1COc1cccc(OC(F)=C(c2cc(Cl)cc(Cl)c2)C(F)(F)F)c1 [Compound 103] | 0 | 100 | 3 | 0 | 60 | 100 | 100 | 96 | – | –
CNC(=O)C(=NOC)c1ccccc1COc1cccc(OC(F)=C(c2cc(Cl)cc(Cl)c2)C(F)(F)F)c1 [Compound 104] | 0 | 100 | 0 | 100 | 50 | 100 | 100 | 100 | 98 | 98
COC=C(C(=O)OC)c1ccccc1COc1cccc(OC(F)=C(c2cccs2)C(F)(F)F)c1 [Compound 105] | 0 | 70 | 0 | 96 | 78 | 100 | – | 96 | – | –
CCCCCCC(=C(F)Oc1cccc(OCc2ccccc2C(=COC)C(=O)OC)c1)C(F)(F)F [Compound 106] | 0 | 100 | 0 | 0 | 45 | 98 | 100 | 91 | – | –
CCCCCCC(=C(F)Oc1cccc(OCc2ccccc2C(=COC)C(=O)NC)c1)C(F)(F)F [Compound 107] | 21 | 41 | 3 | 0 | 10 | 80 | – | – | – | –
